Laboratory results reported in PubChem BioAssay (NCI).
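GI50 marks 50% less growth. TGI is the concentration that stops growth completely.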

Tests used:
Test in all cases: inhibition of tumour cell growth, NCI panel, 384-well format; in the data active = GI50 below about 0.43 µM; inactive = the rest
BT-549 breast = system: BT-549 breast
CCRF-CEM leukemia = system: CCRF-CEM leukemia
MDA-MB-231 breast = system: MDA-MB-231 breast
NCI-H322M lung = system: NCI-H322M lung
RXF 393 renal = system: RXF 393 renal
SF-539 CNS = system: SF-539 CNS
SK-MEL-2 melanoma = system: SK-MEL-2 melanoma
SK-MEL-28 melanoma = system: SK-MEL-28 melanoma
SW-620 colon = system: SW-620 colon
T-47D breast = system: T-47D breast
TK-10 renal = system: TK-10 renal
UACC-62 melanoma = system: UACC-62 melanoma
UO-31 renal = system: UO-31 renal

CC(C)C[C@H](NC(=O)[C@H](Cc1ccccc1)NC(=O)c1cnccn1)B(O)O
91.8 nM: TGI (NCI-H322M lung)
active: GI50 (BT-549 breast) < 10 nM | GI50 (CCRF-CEM leukemia) < 10 nM | GI50 (MDA-MB-231 breast) < 10 nM | GI50 (NCI-H322M lung) 17.7 nM | GI50 (RXF 393 renal) < 10 nM | GI50 (SF-539 CNS) < 10 nM | GI50 (SK-MEL-2 melanoma) < 10 nM | GI50 (SK-MEL-28 melanoma) < 10 nM | GI50 (SW-620 colon) < 10 nM | GI50 (T-47D breast) < 10 nM | GI50 (TK-10 renal) < 10 nM | GI50 (UACC-62 melanoma) < 10 nM | GI50 (UO-31 renal) < 10 nM
< 10 nM: TGI (BT-549 breast) | TGI (CCRF-CEM leukemia) | TGI (MDA-MB-231 breast) | TGI (RXF 393 renal) | TGI (SF-539 CNS) | TGI (SK-MEL-2 melanoma) | TGI (SK-MEL-28 melanoma) | TGI (SW-620 colon) | TGI (T-47D breast) | TGI (TK-10 renal) | TGI (UACC-62 melanoma) | TGI (UO-31 renal)
